According to paper PMC4203399 (Journal of Medicinal Chemistry, 2014):
“Also recorded” adds a separate entry of the source.

Experiments:
Huh-5-2 cells [1] = assay: MTS assay of antimetabolic effect, Huh-5-2; assay type: cell-based; settings: data not shown
recombinant NS5BCΔ21 1b = recombinant NS5BCΔ21 1b (Hepatitis C virus genotype 1b, UniProt O92972); assay: NS5B primer dependent elongation; assay type: biochemical; settings: for inhibition at 50 µM: read-out: inhibition of NS5B RdRp activity, screen at 50 μM
[2] = tested on: genotype 1b HCV subgenomic replicon in Huh-5-2 cells; assay type: cell-based, hepatitis C virus
Huh-5-2 cells [3] = assay: microscopic examination of cell morphology in the replicon assay; assay type: cell-based; settings: 72 h of compound treatment

Structure (SMILES): CN1c2c(C(=O)Nc3ccc(NS(C)(=O)=O)cc3)nn(-c3ccc(C(F)(F)F)cc3)c2-c2ccccc2S1(=O)=O [2m, 4-Methyl-N-{4-[(methylsulfonyl)amino]phenyl}-1-[4-(trifluoromethyl)phenyl]-1,4-dihydropyrazolo[4,3-c][1,2]benzothiazine-3-carboxamide 5,5-Dioxide]
- antimetabolic effect after dose–response curve analysis (Huh-5-2 cells [1]): displayed antimetabolic effect
- inhibition at 50 µM (recombinant NS5BCΔ21 1b): ≥ 50%

Structure (SMILES): CN1c2c(C(=O)Nc3ccccc3)nn(-c3cccc(F)c3)c2-c2ccccc2S1(=O)=O [compound 3, 1-(3-Fluorophenyl)-4-methyl-N-phenyl-1,4-dihydropyrazolo[4,3-c][1,2]benzothiazine-3-carboxamide 5,5-Dioxide]
- anti-NS5B activity (in words) (recombinant NS5BCΔ21 1b): inactive
- assessment of anti-HCV activity in the replicon assay (in words) [2]: false positives

Structure (SMILES): CN1c2c(C(=O)Nc3ccc(NS(C)(=O)=O)cc3)nn(-c3ccc(F)c(F)c3)c2-c2ccccc2S1(=O)=O [2o, 1-(3,4-Difluorophenyl)-4-methyl-N-{4-[(methylsulfonyl)amino]phenyl}-1,4-dihydropyrazolo[4,3-c][1,2]benzothiazine-3-carboxamide 5,5-Dioxide]
- anti-NS5B activity (in words) (recombinant NS5BCΔ21 1b): less active than compound 1
- inhibition at 50 µM (recombinant NS5BCΔ21 1b): ≥ 50%
- assessment of anti-HCV activity in the replicon assay (in words) [2]: false positives

Structure (SMILES): CN1c2c(NC(=O)c3ccc(NS(C)(=O)=O)cc3)nn(-c3cccc(F)c3)c2-c2ccccc2S1(=O)=O [compound 5, N-[1-(3-Fluorophenyl)-4-methyl-5,5-dioxido-1,4-dihydropyrazolo[4,3-c][1,2]benzothiazin-3-yl]-4-(methylsulfonyl)aminobenzamide]
- anti-NS5B activity (in words) (recombinant NS5BCΔ21 1b): inactive

Structure (SMILES): Cc1ccccc1-n1nc(C(=O)Nc2ccc(NS(C)(=O)=O)cc2)c2c1-c1ccccc1S(=O)(=O)N2C [2i, 4-Methyl-1-(2-methylphenyl)-N-{4-[(methylsulfonyl)amino]phenyl}-1,4-dihydropyrazolo[4,3-c][1,2]benzothiazine-3-carboxamide 5,5-Dioxide]
- antimetabolic effect after dose–response curve analysis (Huh-5-2 cells [1]): displayed antimetabolic effect

Structure (SMILES): CN1c2c(C(=O)Nc3ccc(NS(C)(=O)=O)cc3)nn(-c3cccc(Br)c3)c2-c2ccccc2S1(=O)=O [2d, 1-(3-Bromophenyl)-4-methyl-N-{4-[(methylsulfonyl)amino]phenyl}-1,4-dihydropyrazolo[4,3-c][1,2]benzothiazine-3-carboxamide 5,5-Dioxide]
- assessment of anti-HCV activity in the replicon assay (in words) [2]: selective anti-HCV activity without any antimetabolic effect

Structure (SMILES): Cc1ccc(-n2nc(C(=O)Nc3ccc(NS(C)(=O)=O)cc3)c3c2-c2ccccc2S(=O)(=O)N3C)cc1Cl [2r, 1-(3-Chloro-4-methylphenyl)-4-methyl-N-{4-[(methylsulfonyl)amino]phenyl}-1,4-dihydropyrazolo[4,3-c][1,2]benzothiazine-3-carboxamide 5,5-Dioxide]
- antimetabolic effect after dose–response curve analysis (Huh-5-2 cells [1]): displayed antimetabolic effect
- inhibition at 50 µM (recombinant NS5BCΔ21 1b): ≥ 50%

Structure (SMILES): CN1c2c(C(=O)Nc3ccc(OCC(N)=O)cc3)nn(-c3cccc(F)c3)c2-c2ccccc2S1(=O)=O [compound 4, N-[4-(Amino-2-oxoethoxy)phenyl]-1-(3-fluorophenyl)-4-methyl-1,4-dihydropyrazolo[4,3c][1,2]benzothiazine-3-carboxamide 5,5-Dioxide]
- antimetabolic effect after dose–response curve analysis (Huh-5-2 cells [1]): displayed antimetabolic effect
- anti-NS5B activity (in words) (recombinant NS5BCΔ21 1b): inactive

Structure (SMILES): Cc1ccc(-n2nc(C(=O)Nc3ccc(NS(C)(=O)=O)cc3)c3c2-c2ccccc2S(=O)(=O)N3C)cc1C [2q, 1-(3,4-Dimethylphenyl)-4-methyl-N-{4-[(methylsulfonyl)amino]phenyl}-1,4-dihydropyrazolo[4,3-c][1,2]benzothiazine-3-carboxamide 5,5-Dioxide]
- inhibition at 50 µM (recombinant NS5BCΔ21 1b): < 50%

Structure (SMILES): CN1c2c(C(=O)Nc3ccc(NS(C)(=O)=O)cc3)nn(-c3ccccc3Cl)c2-c2ccccc2S1(=O)=O [2c, 1-(2-Chlorophenyl)-4-methyl-N-{4-[(methylsulfonyl)amino]phenyl}-1,4-dihydropyrazolo[4,3-c][1,2]benzothiazine-3-carboxamide 5,5-Dioxide]
- antimetabolic effect after dose–response curve analysis (Huh-5-2 cells [1]): displayed antimetabolic effect

Structure (SMILES): CN1c2c(C(=O)Nc3ccc(NS(C)(=O)=O)cc3)nn(-c3ccccc3C(F)(F)F)c2-c2ccccc2S1(=O)=O [2n, 4-Methyl-N-{4-[(methylsulfonyl)amino]phenyl}-1-[2-(trifluoromethyl)phenyl]-1,4-dihydropyrazolo[4,3-c][1,2]benzothiazine-3-carboxamide 5,5-Dioxide]
- inhibition at 50 µM (recombinant NS5BCΔ21 1b): < 50%

Structure (SMILES): Cc1ccc(-n2nc(C(=O)Nc3ccc(NS(C)(=O)=O)cc3)c3c2-c2ccccc2S(=O)(=O)N3C)cc1 [2h, 4-Methyl-1-(4-methylphenyl)-N-{4-[(methylsulfonyl)amino]phenyl}-1,4-dihydropyrazolo[4,3-c][1,2]benzothiazine-3-carboxamide 5,5-Dioxide]
- assessment of anti-HCV activity in the replicon assay (in words) [2]: selective anti-HCV activity without any antimetabolic effect
- effect on cell morphology (microscopic analysis) (Huh-5-2 cells [3]): did not display any significant effects on cell morphology; also recorded: did not display any antimetabolic and cell morphology alteration effects

Structure (SMILES): CN1c2c(C(=O)Nc3ccc(NS(C)(=O)=O)cc3)n[nH]c2-c2ccccc2S1(=O)=O [2u, 4-Methyl-N-{4-[(Methylsulfonyl)amino]phenyl}-1,4-dihydropyrazolo[4,3-c][1,2]benzothiazine-3-carboxamide 5,5-Dioxide]
- anti-NS5B activity (in words) (recombinant NS5BCΔ21 1b): totally inactive
- inhibition at 50 µM (recombinant NS5BCΔ21 1b): < 50%

Structure (SMILES): COc1cccc(-n2nc(C(=O)Nc3ccc(NS(C)(=O)=O)cc3)c3c2-c2ccccc2S(=O)(=O)N3C)c1 [2j, 1-(3-Methoxyphenyl)-4-methyl-N-{4-[(methylsulfonyl)amino]phenyl}-1,4-dihydropyrazolo[4,3-c][1,2]benzothiazine-3-carboxamide 5,5-Dioxide]
- anti-NS5B activity (in words) (recombinant NS5BCΔ21 1b): inactive
- inhibition at 50 µM (recombinant NS5BCΔ21 1b): < 50%

Structure (SMILES): CN1c2c(C(=O)Nc3ccc(NS(C)(=O)=O)cc3)nn(-c3ccc(Br)cc3)c2-c2ccccc2S1(=O)=O [2e, 1-(4-Bromophenyl)-4-methyl-N-{4-[(methylsulfonyl)amino]phenyl}-1,4-dihydropyrazolo[4,3-c][1,2]benzothiazine-3-carboxamide 5,5-Dioxide]
- assessment of anti-HCV activity in the replicon assay (in words) [2]: selective anti-HCV activity without any antimetabolic effect

Structure (SMILES): COc1ccc(-n2nc(C(=O)Nc3ccc(NS(C)(=O)=O)cc3)c3c2-c2ccccc2S(=O)(=O)N3C)cc1 [2k, 1-(4-Methoxyphenyl)-4-methyl-N-{4-[(methylsulfonyl)amino]phenyl}-1,4-dihydropyrazolo[4,3-c][1,2]benzothiazine-3-carboxamide 5,5-Dioxide]
- anti-NS5B activity (in words) (recombinant NS5BCΔ21 1b): inactive
- inhibition at 50 µM (recombinant NS5BCΔ21 1b): < 50%
- assessment of anti-HCV activity in the replicon assay (in words) [2]: selective anti-HCV activity without any antimetabolic effect
- effect on cell morphology (microscopic analysis) (Huh-5-2 cells [3]): did not display any significant effects on cell morphology

Structure (SMILES): CN1c2c(C(=O)Nc3ccc(NS(C)(=O)=O)cc3)nn(-c3ccccc3Br)c2-c2ccccc2S1(=O)=O [2f, 1-(2-Bromophenyl)-4-methyl-N-{4-[(methylsulfonyl)amino]phenyl}-1,4-dihydropyrazolo[4,3-c][1,2]benzothiazine-3-carboxamide 5,5-Dioxide]
- assessment of anti-HCV activity in the replicon assay (in words) [2]: false positives

Structure (SMILES): Cc1cccc(-n2nc(C(=O)Nc3ccc(NS(C)(=O)=O)cc3)c3c2-c2ccccc2S(=O)(=O)N3C)c1 [2g, 4-Methyl-1-(3-methylphenyl)-N-{4-[(methylsulfonyl)amino]phenyl}-1,4-dihydropyrazolo[4,3-c][1,2]benzothiazine-3-carboxamide 5,5-Dioxide]
- assessment of anti-HCV activity in the replicon assay (in words) [2]: selective anti-HCV activity without any antimetabolic effect

Structure (SMILES): CN1c2c(C(=O)Nc3ccc(NS(C)(=O)=O)cc3)nn(-c3ccc(Cl)c(Cl)c3)c2-c2ccccc2S1(=O)=O [2p, 1-(3,4-Dichlorophenyl)-4-methyl-N-{4-[(methylsulfonyl)amino]phenyl}-1,4-dihydropyrazolo[4,3-c][1,2]benzothiazine-3-carboxamide 5,5-Dioxide]
- antimetabolic effect after dose–response curve analysis (Huh-5-2 cells [1]): displayed antimetabolic effect
- inhibition at 50 µM (recombinant NS5BCΔ21 1b): ≥ 50%

Structure (SMILES): CN1c2c(C(=O)Nc3ccc(NS(C)(=O)=O)cc3)nn(-c3ccc(Cl)c(C(F)(F)F)c3)c2-c2ccccc2S1(=O)=O [2s, 1-[4-Chloro-3-(trifluoromethyl)phenyl]-4-methyl-N-{4-[(methylsulfonyl)amino]phenyl}-1,4-dihydropyrazolo[4,3-c][1,2]benzothiazine-3-carboxamide 5,5-Dioxide]
- antimetabolic effect after dose–response curve analysis (Huh-5-2 cells [1]): displayed antimetabolic effect
- inhibition at 50 µM (recombinant NS5BCΔ21 1b): < 50%

Structure (SMILES): CN1c2c(C(=O)Nc3ccc(NS(C)(=O)=O)cc3)nn(-c3cccc(C(F)(F)F)c3)c2-c2ccccc2S1(=O)=O [2l, 4-Methyl-N-{4-[(methylsulfonyl)amino]phenyl}-1-[3-(trifluoromethyl)phenyl]-1,4-dihydropyrazolo[4,3-c][1,2]benzothiazine-3-carboxamide 5,5-Dioxide]
- inhibition at 50 µM (recombinant NS5BCΔ21 1b): ≥ 50%
- assessment of anti-HCV activity in the replicon assay (in words) [2]: selective anti-HCV activity without any antimetabolic effect
